Data set [1] has as its system HUVEC. The data set is described as follows: Antiapoptotic activity against low density lipoprotein-induced apoptosis in HUVEC cells assessed as nuclear fragmentation after 24 hrs by acridin orange staining. The data set is classed as functional, cell-based. The settings on record: Homo sapiens.
Data set [2] has as its system HUVEC. The data set is described as follows: Antiapoptotic activity against low density lipoprotein-induced vascular apoptosis in HUVEC cells assessed as modulation of NF-kappaB level by lase scanning confocal microscope. The format is functional, cell-based. To be noted: Homo sapiens.
In data set [3] the test system is HUVEC. As to the kind of experiment: Antiapoptotic activity against low density lipoprotein-induced vascular apoptosis in HUVEC cells assessed as translocation of NF-kappaB across the nucleus by lase scanning confocal microscope. The settings on record: Homo sapiens. The data set is classed as functional, cell-based.
Data set [4] concerns HUVEC. The data set is described as follows: Antiapoptotic activity against low density lipoprotein-induced apoptosis in HUVEC cells assessed as nuclear condensation after 24 hrs by acridin orange staining. To be noted: Homo sapiens. The format is functional, cell-based.
Data set [5] has as its system HUVEC. As to the kind of experiment: Antiapoptotic activity against low density lipoprotein-induced apoptosis in HUVEC cells assessed as apoptotic cell after 24 hrs by TUNEL assay. The data set is classed as functional, cell-based. To be noted: Homo sapiens.
Data set [6] relates to HUVEC. As to the kind of experiment: Antiapoptotic activity against low density lipoprotein-induced vascular apoptosis in HUVEC cells assessed as inhibition of ROS by lase scanning confocal microscope. The data set is classed as functional, cell-based. The settings on record: Homo sapiens.
For data set [7], the system named is HUVEC. As to the kind of experiment: Antiapoptotic activity against low density lipoprotein-induced apoptosis in HUVEC cells assessed as inhibition of integrin beta4 level at 50 uM by immunofluorescence technique. To be noted: Homo sapiens. The format is functional, cell-based.
For data set [8], the system named is HUVEC. The data set is described as follows: Antiapoptotic activity against low density lipoprotein-induced vascular apoptosis in HUVEC cells assessed as modulation of P53 level by lase scanning confocal microscope. The format is functional, cell-based. The settings on record: Homo sapiens.
Data set [9] concerns HUVEC. The data set is described as follows: Cytotoxicity against HUVEC cells assessed as reduction in low density lipoprotein-induced cell viability at 50 uM by MTT assay. The format is cell-based. The settings on record: human.
Data set [10] deals with HUVEC. As to the kind of experiment: Antiapoptotic activity against low density lipoprotein-induced apoptosis in HUVEC cells by Hoechst 33258 staining. The data set is classed as functional, cell-based. To be noted: Homo sapiens.

Calls of active or inactive are those of the source. The calls are words filed in the database; no cut-off is given here.

As for `Nc1ccc2c(c1)NC(CO)CO2` (stereo not given), the result in data set [1], in [2], in [3], in [4], in data set [5] and in [6] was Active. For the same compound, the result in data set [7] and in data set [8] was Active. Further, the Activity entry in [9] was “Toxic”; in data set [10], “Dose-dependent effect”.
